The values that follow come from patent US8329695B2, “Crystalline form of the free base N-[trans-4-[4-(cyclopropylmethyl)-1-piperazinyl]cyclohexyl]-4-[[(7r)-7-ethyl-5,6,7,8-tetrahydro-5-methyl-8-(1-methylethyl)-6-oxo-2-pteridinyl]amino]-3-methoxy-benzamide” (Boehringer Ingelheim International GmbH, priority 2007, dated 2012).

Holding throughout (type): physicochemical
Data set [1] in a line: Solid state stability of the trihydrochloride salt forms. The following applies: humidity lowered down to 10% r.h. The source says: Under standard conditions the crystalline trihydrochloride salt form of N-[trans-4-[4-(cyclopropylmethyl)-1-piperazinyl]cyclohexyl]-4-[[(7R)-7-ethyl-5,6,7,8-tetrahydro-5-methyl-8-(1-methylethyl)-6-oxo-2-pteridinyl]amino]-3-methoxy-benzamide is present in the form of an hydrate and is obtainable after drying with a changing stoichiometry (1-3 water equivalents). The hydrate with a stoichiometry close to a trihydrate seems to be the stable hydrated form under ambient conditions and can be obtained after conditioning of the dried material. The crystal water is tightly bound.
The respective anhydrous form, obtained by heating a sample up to 140° C., is not stable.

Data set [2] in a line: Solubility in aqueous media. The text has this: Solubility in Aqueous Media
Data set [3] can be described thus: Intrinsic dissolution rate in aqueous media (rotating disc method). The settings on record: 37° C., 200 rpm. As for the experimental part:
The intrinsic dissolution rate of this crystalline form of the compound […] which maintains a constant surface area. 5 mg drug substance is compressed to form a disc at 356.1 N for 60 s. These discs are mounted to specially designed sample holders which fit into a Sotax dissolution tester. The dissolution media (37° C.) are stirred at 200 rpm. Samples are automatically withdrawn every second minute from the dissolution vessel and assayed via UV spectrophotometry. The intrinsic dissolution rate expressed in μg/cm^2/min is calculated using the slope of the concentration versus time plot and from the linear portion of the slope of the dissolution curve, volume of dissolution medium (35 ml) and area (diameter: 2 mm) of the exposed disk.

The nature of data set [4]: Hygroscopical behaviour, water sorption isotherms (DVS-1). The following applies: 25° C. The method, then: To study the hygroscopical behaviour of this material, sorption isotherms are registered on a DVS-1 water sorption monitor from Surface Measurement Systems. Adsorption and desorption isotherms are performed at 25° C. with 10% r.h. step intervals ranging from 10% r.h. up to 90% r.h.

Bounds are passed on as bounds.

For `CC[C@@H]1C(=O)N(C)c2cnc(Nc3ccc(C(=O)N[C@H]4CC[C@H](N5CCN(CC6CC6)CC5)CC4)cc3OC)nc2N1C(C)C.Cl.Cl.Cl.O.O.O` [formula (I) trihydrochloride, N-[trans-4-[4-(cyclopropylmethyl)-1-piperazinyl]cyclohexyl]-4-[[(7R)-7-ethyl-5,6,7,8-tetrahydro-5-methyl-8-(1-methylethyl)-6-oxo-2-pteridinyl]amino]-3-methoxy-benzamide trihydrochloride trihydrate], the “weight loss on lowering the humidity” value in data set [1] is reported as “does not result in a significant weight loss”.

For `CC[C@@H]1C(=O)N(C)c2cnc(Nc3ccc(C(=O)N[C@H]4CC[C@H](N5CCN(CC6CC6)CC5)CC4)cc3OC)nc2N1C(C)C` [formula (I), N-[trans-4-[4-(cyclopropylmethyl)-1-piperazinyl]cyclohexyl]-4-[[(7R)-7-ethyl-5,6,7,8-tetrahydro-5-methyl-8-(1-methylethyl)-6-oxo-2-pteridinyl]amino]-3-methoxy-benzamide], the solubility in data set [2] (Sörensen buffer, aqueous buffer, thermodynamic from solid, Sörensen pH 9.0, pH of the saturated solution 9.2) was 3 µg/mL; in data set [2] (Sörensen buffer, aqueous buffer, thermodynamic from solid, Sörensen pH 10, pH of the saturated solution 9.9) it was 7 µg/mL; in data set [2] (Sörensen buffer, aqueous buffer, thermodynamic from solid, Sörensen pH 11, pH of the saturated solution 10.5) it was 9 µg/mL; in data set [2] (aqueous buffer, thermodynamic from solid, McIlvaine buffer pH 2.2, pH of the saturated solution 2.8), above 10000 µg/mL; in data set [2] (aqueous buffer, thermodynamic from solid, McIlvaine buffer pH 3.0, pH of the saturated solution 3.6), above 10000 µg/mL; in data set [2] (aqueous buffer, thermodynamic from solid, McIlvaine buffer pH 4.0, pH of the saturated solution 4.6), above 10000 µg/mL. The solubility was above 10000 µg/mL in data set [2] (aqueous buffer, thermodynamic from solid, McIlvaine buffer pH 5.0, pH of the saturated solution 5.5); above 10000 µg/mL in data set [2] (aqueous buffer, thermodynamic from solid, McIlvaine buffer pH 6.0, pH of the saturated solution 6.3); above 10000 µg/mL in data set [2] (aqueous buffer, thermodynamic from solid, McIlvaine buffer pH 7.0, pH of the saturated solution 7.2); 2500 µg/mL in data set [2] (aqueous buffer, thermodynamic from solid, McIlvaine buffer pH 7.4, pH of the saturated solution 7.4); above 10000 µg/mL in data set [2] (pH 1.1, simulated gastric fluid, thermodynamic from solid, medium 0.1 N HCl, pH of the saturated solution 1.1); 7600 µg/mL in data set [2] (pH 6.8, simulated gastric fluid, thermodynamic from solid, medium 0.01 N HCl, pH of the saturated solution 6.8). In addition, the solubility in data set [2] (pH 9.6, thermodynamic from solid, medium water, pH of the saturated solution 9.6) is 110 µg/mL; in data set [2] (pH 11.7, aqueous buffer, thermodynamic from solid, 0.01 N NaOH, pH of the saturated solution 11.7), 8 µg/mL; in data set [2] (pH 12.8, aqueous buffer, thermodynamic from solid, 0.01 N NaOH (second line), pH of the saturated solution 12.8), 3 µg/mL; in data set [2] (phosphate buffer, aqueous buffer, thermodynamic from solid, Phosphate pH 6.0, pH of the saturated solution 6.5), above 10000 µg/mL; in data set [2] (phosphate buffer, aqueous buffer, thermodynamic from solid, Phosphate pH 7.0, pH of the saturated solution 7.3), 10000 µg/mL; in data set [2] (phosphate buffer, aqueous buffer, thermodynamic from solid, Phosphate pH 8.0, pH of the saturated solution 8.1) it was 36 µg/mL. Further, the “solubility profile in aqueous media (conclusion in words)” value in data set [2] (aqueous media of Table 1) is recorded as “good solubility profile”. Further, the dissolution rate in data set [3] (pH of aqueous medium 1.1) is recorded as 6600 μg/cm^2/min; in data set [3] (pH of aqueous medium 3.1) it was 2760 μg/cm^2/min; in data set [3] (pH of aqueous medium 4.1), 1810 μg/cm^2/min; in data set [3] (pH of aqueous medium 5.0), 1390 μg/cm^2/min; in data set [3] (pH of aqueous medium 6.1) it was 1180 μg/cm^2/min; in data set [3] (pH of aqueous medium 7.5), below 50 μg/cm^2/min. Also, in data set [4] (10% r.h. up to 90% r.h.), the “hygroscopicity (in words)” value was “not hygroscopic”. Further, the “reversibility of the water-uptake” value in data set [4] (adsorption and desorption isotherms) was “completely reversible”. Further, in data set [4] (over the range 10-90% r.h.), the uptake of water entry was “approx. 0.7%”.
